Measured values: PMC10855902 (International Journal of Molecular Sciences, 2024)

Test system: anti-EGF rabbit polyclonal antibodies (Abcam 9695)
Assay: Dot blot of cellulose-immobilized EGF decapeptides with anti-EGF polyclonal antibodies;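 on Intensity (Staining Value): higher gray value means stronger antibody binding with above 120 very strong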
Assay type: binding
Conditions: for Intensity (ability to interact with polyclonal antibodies) / interaction with polyclonal anti-EGF antibodies (in words): peptide on cellulose matrix; for Intensity (ability to interact with polyclonal antibodies): antibody 1:1000, 1 h room temperature; for Intensity (Staining Value): scanned spot, 256 gray scale (ImageJ)
Description: Dot blot reactions were performed using primary anti-EGF rabbit polyclonal antibodies (Abcam 9695) (Cambridge, UK) and secondary goat anti-rabbit antibodies conjugated with HRP (Abcam 205718). The procedure for using the dot blot method to analyze peptides immobilized on a cellulose matrix through a triazine linker was optimized in a previous study by the authors and ensures the elimination of non-specific impacts.
The solution was then removed, and the membranes were treated overnight at room temperature with blocking buffer (3% BSA in PBS, 40 mL, pH 7.4). The cellulose sheets were then washed with PBS buffer (40 mL, 5 min, pH 7.4). […] The membranes were then washed with Tween-80 solution in PBS (0.4%, 40 mL, 2 × 5 min) and PBS (40 mL, 5 min). Goat Anti-Rabbit IgG antibodies were conjugated with HRP (Abcam 205718, 20 μL) diluted 1:1000 in 1% BSA in PBS (20 mL, pH 7.4) and then incubated with cellulose sheets for 30 min at room temperature. The membranes were then washed with Tween-80 solution in PBS (0.4%, 40 mL, 2 × 5 min) and PBS (40 mL, 5 min). Visualization of the reactions was performed using 4-chloro-1-naphtol (Sigma–Aldrich). The cellulose sheets were placed into 0.15 mg/mL solution of 4-chloro-1-naphtol in MeOH:PBS (1:5, 15 mL) with the addition of 7.5 μL of H2O2; reaction time was 30 min. The membranes were washed with distilled water, air-dried, and scanned. In places where immunological complexes developed, blue precipitate was observed. The applied dot blot test procedure ensures the elimination of non-specific interactions. Additionally, using the same SPOT synthesis procedure, a library of type IV collagen fragments was obtained. […] The gray levels of the immunological reactions were determined using ImageJ Version 1.53n7 (https://imagej.nih.gov/ij/index.html, accessed on 17 October 2021) computer imaging software.

| Substance | Intensity (ability to interact with polyclonal antibodies) | Intensity (Staining Value) | interaction with polyclonal anti-EGF antibodies (in words) |
| --- | --- | --- | --- |
| H-^20CMYIEALDKY^29-matrix [A20] | ++ (very strong (++), for which the staining intensity value was >120) | 132.8 |  |
| H-^35VGYIGERCQY^44-matrix [B15] | + (strong (+), for which the staining intensity value was in the range of 120–90) | 91.0 |  |
| H-^23IEALDKYACN^32-matrix [B3] | +/− (moderately strong (+/−), for which the color intensity value was in the range of 90–45) | 63.8 | lower affinity for antibodies |
| H-^32NCVVGYIGER^41-matrix [B12] | +/− (moderately strong (+/−), for which the color intensity value was in the range of 90–45) | 56.3 |  |
| H-^27DKYACNCVVG^36-matrix [B7] | +/− (moderately strong (+/−), for which the color intensity value was in the range of 90–45) | 55.3 |  |
| H-^2SDSECPLSHD^11-matrix [A2] | − ((−), where the color intensity value was <45) | 22.3 |  |
| H-^1NSDSECPLSH^10-matrix [A1] | − ((−), where the color intensity value was <45) | 14.8 |  |
| H-^29YACNCVVGYI^38-matrix [B9] | + (strong (+), for which the staining intensity value was in the range of 120–90) | 91.1 |  |
| H-^15LHDGVCMYIE^24-matrix [A15] | − ((−), where the color intensity value was <45) | 41.6 | no affinity for antibodies |
| H-^41RCQYRDLKWW^50-matrix [C1] | + (strong (+), for which the staining intensity value was in the range of 120–90) | 91.5 | moderate binding to antibodies |
| H-^3DSECPLSHDG^12-matrix [A3] | +/− (moderately strong (+/−), for which the color intensity value was in the range of 90–45) | 71.7 |  |
| H-^4SECPLSHDGY^13-matrix [A4] | +/− (moderately strong (+/−), for which the color intensity value was in the range of 90–45) | 55.2 |  |
| H-^22YIEALDKYAC^31-matrix [B2] | ++ (very strong (++), for which the staining intensity value was >120) | 122.4 |  |
| H-^39GERCQYRDLK^48-matrix [B19] | − ((−), where the color intensity value was <45) | 28.9 | do not exhibit the ability to interact with antibodies |
| H-^40ERCQYRDLKW^49-matrix [B20] |  |  | do not exhibit the ability to interact with antibodies |
| H-^31CNCVVGYIGE^40-matrix [B11] | +/− (moderately strong (+/−), for which the color intensity value was in the range of 90–45) | 60.3 |  |
| H-^44YRDLKWWELR^53-matrix [C4] | + (strong (+), for which the staining intensity value was in the range of 120–90) | 104.2 | show interactions with polyclonal anti-EGF antibodies |
| H-^33CVVGYIGERC^42-matrix [B13] | +/− (moderately strong (+/−), for which the color intensity value was in the range of 90–45) | 65.7 |  |
| H-^17DGVCMYIEAL^26-matrix [A17] | +/− (moderately strong (+/−), for which the color intensity value was in the range of 90–45) | 88.9 |  |
| H-^30ACNCVVGYIG^39-matrix [B10] | +/− (moderately strong (+/−), for which the color intensity value was in the range of 90–45) | 58.5 |  |
| H-^26LDKYACNCVV^35-matrix [B6] | +/− (moderately strong (+/−), for which the color intensity value was in the range of 90–45) | 46.6 |  |
| H-^5ECPLSHDGYC^14-matrix [A5] | +/− (moderately strong (+/−), for which the color intensity value was in the range of 90–45) |  |  |

| Substance | Intensity (ability to interact with polyclonal antibodies) | Intensity (Staining Value) | interaction with polyclonal anti-EGF antibodies (in words) |
| --- | --- | --- | --- |
| H-^38IGERCQYRDL^47-matrix [B18] | +/− (moderately strong (+/−), for which the color intensity value was in the range of 90–45) | 76.1 |  |
| H-^6CPLSHDGYCL^15-matrix [A6] | +/− (moderately strong (+/−), for which the color intensity value was in the range of 90–45) |  |  |
| H-^18GVCMYIEALD^27-matrix [A18] | + (strong (+), for which the staining intensity value was in the range of 120–90) | 116.0 |  |
| H-^43QYRDLKWWEL^52-matrix [C3] | + (strong (+), for which the staining intensity value was in the range of 120–90) | 99.4 | show interactions with polyclonal anti-EGF antibodies |
| H-^9SHDGYCLHDG^18-matrix [A9] | +/− (moderately strong (+/−), for which the color intensity value was in the range of 90–45) | 63.8 |  |
| H-^42CQYRDLKWWE^51-matrix [C2] | + (strong (+), for which the staining intensity value was in the range of 120–90) | 91.4 | moderate binding to antibodies |
| H-^13YCLHDGVCMY^22-matrix [A13] | + (strong (+), for which the staining intensity value was in the range of 120–90) | 93.0 |  |
| H-^19VCMYIEALDK^28-matrix [A19] | ++ (very strong (++), for which the staining intensity value was >120) | 128.0 |  |
| H-^34VVGYIGERCQ^43-matrix [B14] | +/− (moderately strong (+/−), for which the color intensity value was in the range of 90–45) | 69.4 |  |
| H-^16HDGVCMYIEA^25-matrix [A16] | − ((−), where the color intensity value was <45) | 44.8 | low affinity |
| H-^8LSHDGYCLHD^17-matrix [A8] | +/− (moderately strong (+/−), for which the color intensity value was in the range of 90–45) | 59.3 |  |
| H-^28KYACNCVVGY^37-matrix [B8] | +/− (moderately strong (+/−), for which the color intensity value was in the range of 90–45) | 63.5 |  |
| H-^14CLHDGVCMYI^23-matrix [A14] | − ((−), where the color intensity value was <45) | 31.6 | inactive |
| H-^10HDGYCLHDGV^19-matrix [A10] | + (strong (+), for which the staining intensity value was in the range of 120–90) | 91.3 |  |
| H-^21MYIEALDKYA^30-matrix [B1] | ++ (very strong (++), for which the staining intensity value was >120) | 130.3 |  |
| H-^11DGYCLHDGVC^20-matrix [A11] | + (strong (+), for which the staining intensity value was in the range of 120–90) | 90.5 |  |
| H-^25ALDKYACNCV^34-matrix [B5] | − ((−), where the color intensity value was <45) | 29.6 |  |
| H-^36GYIGERCQYR^45-matrix [B16] | + (strong (+), for which the staining intensity value was in the range of 120–90) | 98.0 |  |
| H-^12GYCLHDGVCM^21-matrix [A12] | + (strong (+), for which the staining intensity value was in the range of 120–90) | 92.4 |  |
| H-^24EALDKYACNC^33-matrix [B4] | − ((−), where the color intensity value was <45) | 30.5 | no affinity for antibodies |
| H-^37YIGERCQYRD^46-matrix [B17] | + (strong (+), for which the staining intensity value was in the range of 120–90) | 106.2 |  |
